Laboratory results: US20210113523A1, “Compositions For Treating And/Or Preventing Photodynamic Therapy Side Effects” (AC BIOSCIENCE SA, priority 2018, published 2021)
Read-outs that look alike come from different tables or passages of the source.

What was measured:
mast cells = assay: Mast cell degranulation estimated by beta-hexosaminidase release (IgE/anti-IgE); type: cell-based; conditions: 1 hour after IgE stimulation
Description: Degranulation was induced by the addition of IgE followed by the addition of anti-IgE Beta-hexosaminidase was measured 1 hour after IgE stimulation. Reference molecule was cromoglycate.

activated mast cells = assay: IL6 release from activated mast cells; type: cell-based; conditions: primed mast cells activated by anti IgE, 6 hours; FIG. 2
Description: Mast cells were obtained from CD34+ progenitors cultivated during 8 weeks in the presence of stem cell factor and IL3. Some mast cells (light grey with spots) were primed during 5 days by IL4 and IgE. Primed mast cells were activated by anti IgE and IL6 release is measured 6 hours following the activation. Masitinib (Masi) a c-kit receptor inhibitor is taken as positive control. Dark grey corresponds to the basal release of IL6 in the absence of mast cells activation. Maximum release of resting mast cells were obtained by the use of a calcium ionophore.

human neutrophils = assay: ROS production of PMA-activated neutrophils (chemiluminescence); type: cell-based; conditions: activation by 100 ng/ml PMA; FIG. 1
Description: ROS production is measured using a chemiluminescence standard procedure: briefly, one hundred microliters of human neutrophils (4×10^6/mL) were primed with TNF-α at 37° C. for 25 minutes. 100 μL luminol (1 μM final concentration) and HRP (62.5 U/mL final concentration) in HBSS were added, and 150-μL aliquots were transferred to a prewarmed 96-well luminometer plate. Light emission was recorded by a Berthold MicroLumat Plus luminometer (Berthold Technologies, Hartfordshire, United Kingdom) (data output is in relative light units per second)

[1] = read-out: NO scavenging IC50; cited from earlier work
[2] = 10 mg/kg; cited from earlier work
[3] = read-out: 2,2-diphenyl-1-picrylhydrazyl scavenging IC50; cited from earlier work
[4] = tested on: Chick Chorioallantoic Membrane (CAM) vessel network; assay: CAM vessel network following PDT irradiation; type: in vivo
Description: 5-ALA (20 mg/ml; pH=6.8) was topically applied on CAM 4 hours before PDT □ For Catechin samples, Catechin (at different concentrations: 1-30 μM) was topically applied on CAM 15 min before PDT-PDT: λ=405 nm irradiance=2.86 mW/cm2 light dose=1.2 J/cm2-10 μM Catechin has the most protective effect against PDT deleterious effect. 5-ALA: aminolevulinique acid.

[5] = 10−4 M, control without IgE 0.132
[6] = 10−5 M, control without IgE 0.135

With `O=C1c2c(O)cc(O)cc2O[C@H](c2ccc(O)c(O)c2)[C@H]1O` [DHQ, Dihydroquercetin] the beta-hexosaminidase release (mast cells; [5]) was 0.28, the beta-hexosaminidase release (mast cells; [6]) was 0.52 and the “IL6 release from activated mast cells” value (activated mast cells) was “inhibitor of IL6 release”. For the same molecule, the “reactive oxygen species (ROS) production by neutrophils” value (human neutrophils) was “inhibitory effect”.
For `Oc1cc(O)cc(/C=C/c2ccc(O)cc2O)c1` [Oxyresveratrol], the IC50 [1] is given as 45.3 µM, the brain infarct volume [2] is given as “reducing” and the caspase-3 activation [2] is given as “reducing”. The cytochrome c release [2] was “reducing” and the IC50 [3] was 28.9 µM.
Work on `O=C(O)c1cc(=O)c2c(OCC(O)COc3cccc4oc(C(=O)O)cc(=O)c34)cccc2o1` [Reference molecule, cromoglycate, reference compound] yielded a beta-hexosaminidase release (mast cells; [5]) of 0.34 and a beta-hexosaminidase release (mast cells; [6]) of 0.48.
For (+)Catechin, the “Catechin concentration at which microvessel protection is evidenced (as low as)” value ([4]; presence of microvessels in the CAM vasculature network, FIG. 5A) was 1 µM and the “Catechin concentration with the most protective effect against PDT deleterious effect” value ([4]; topically applied on CAM 15 min before PDT, tested 1-30 μM, 5-ALA 20 mg/ml) was 10 µM.
